Key:
[1] = test system: Leukemia L1210; test: Activity against Leukemia L1210, intraperitoneal, increase in life span of mice; assay type: in vivo, female mice (BDF1 family); settings: for ED (maximum ILS) / ED30: Mus musculus, L1210, ip; for ED (maximum ILS): read-out: O.D. (optimum dosage); for ED30: read-out: ILS30; for Survivors after 60 days / Max. ILS % / Therapeutic ratio TR: ip; for Survivors after 60 days: 6-membered group; for Max. ILS %: 60-day observation, versus control; for Therapeutic ratio TR: O.D./ILS30
Outline: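 Female BDF1 mice (20 to 23 g, 6 per group) implanted ip with 1×10^5 L1210 cells; test compound given ip or orally once daily for 5 days starting 24 h later. ILS% from mean survival days vs untreated controls over 60 days; T.R. = O.D./ILS30.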

[2] = Acute toxicity (LD50, Behrens-Karber method); assay type: in vivo, ICR mice; settings: ip, mortality during 30 days; for LD50 at 720 h: mouse, in vivo
Description: Test compounds, dissolved or suspended in 0.5% aqueous CMC, were each intraperitoneally administered to ICR mice in a dose of 0.1 ml per 10 g body weight. LD50 (mg/kg) value of each test compound was calculated from the mortality of mice during 30 days by the Behrens-Karber method.

[3] = ip once a day for 5 successive days, daily dosage giving maximum increase of life span
[4] = ip once a day for 5 successive days, daily dosage increasing average survival days by 30%

Structure (SMILES): C=C(C)CN(C(=O)N(CCCl)N=O)C1C(CO)OC(OC2CCCCC2)C(O)C1O [Compound 97, 3-(2-methyl-2-propenyl)-3-(cyclohexyl α-D-glucopyranose-4-yl)-1-(2-chloroethyl)-1-nitrosourea]
- ED (maximum ILS) [1, 3]: 120 mg/kg
- ED30 [1, 4]: 3.72 mg/kg
- Survivors after 60 days [1]: 3/6
- Max. ILS % [1]: > 360%
- Therapeutic ratio TR [1]: 32.3
- LD50 at 720 h [2]: 390 mg/kg

Structure (SMILES): CC(C)CN(C(=O)N(CCCl)N=O)[C@@H]1[C@H](OC2CCCCC2)O[C@H](CO)[C@H]1O [Compound 162, 3-isobutyl-3-(cyclohexyl β-D-arabinofuranose-2-yl)-1-(2-chloroethyl)-1-nitrosourea]
- ED (maximum ILS) [1, 3]: 160 mg/kg
- ED30 [1, 4]: 5.63 mg/kg
- Survivors after 60 days [1]: 3/6
- Max. ILS % [1]: > 350%
- Therapeutic ratio TR [1]: 28.4
- LD50 at 720 h [2]: 500 mg/kg

Structure (SMILES): CCCC(OC)O[C@H]1O[C@H](CN(CCC(C)(C)C)C(=O)N(CCCl)N=O)[C@@H](O)[C@H](O)[C@H]1O (stereo partly drawn) [Compound 191, 3-(3,3-dimethyl-n-butyl)-3-(1-methoxy-n-butyl α-D-glucopyranose-6-yl)-1-(2-chloroethyl)-1-nitrosourea]
- ED (maximum ILS) [1, 3]: 160 mg/kg
- ED30 [1, 4]: 2.64 mg/kg
- Survivors after 60 days [1]: 6/6
- Max. ILS % [1]: > 700%
- Therapeutic ratio TR [1]: 60.6
- LD50 at 720 h [2]: 560 mg/kg

Structure (SMILES): CC(C)CN(C[C@H]1O[C@@H](OC2CCCCC2)[C@H](O)[C@@H]1O)C(=O)N(CCCl)N=O [Compound 169, 3-isobutyl-3-(cyclohexyl β-D-ribofuranose-5-yl)-1-(2-chloroethyl)-1-nitrosourea]
- ED (maximum ILS) [1, 3]: 180 mg/kg
- ED30 [1, 4]: 3.9 mg/kg
- Survivors after 60 days [1]: 4/6
- Max. ILS % [1]: > 420%
- Therapeutic ratio TR [1]: 46.2
- LD50 at 720 h [2]: 550 mg/kg

Structure (SMILES): CC(C)CO[C@H]1O[C@H](CN(C(=O)N(CCCl)N=O)C(C)C)[C@@H](O)[C@H](O)[C@H]1O [Compound 13, 3-isopropyl-3-(isobutyl α-D-glucopyranose-6-yl)-1-(2-chloroethyl)-1-nitrosourea]
- ED (maximum ILS) [1, 3]: 120 mg/kg
- ED30 [1, 4]: 2.77 mg/kg
- Survivors after 60 days [1]: 6/6
- Max. ILS % [1]: > 700%
- Therapeutic ratio TR [1]: 43.3
- LD50 at 720 h [2]: 375 mg/kg

Structure (SMILES): CCCCO[C@H]1O[C@H](CO)[C@@H](O)[C@H](O)[C@H]1N(CCOCCO)C(=O)N(CCCl)N=O [Compound 58, 3-[2-(2-hydroxyethoxy)ethyl]-3-(n-butyl α-D-glucopyranose-2-yl)-1-(2-chloroethyl)-1-nitrosourea]
- ED (maximum ILS) [1, 3]: 190 mg/kg
- ED30 [1, 4]: 4.2 mg/kg
- Survivors after 60 days [1]: 4/6
- Max. ILS % [1]: > 422%
- Therapeutic ratio TR [1]: 45.2
- LD50 at 720 h [2]: 585 mg/kg

Structure (SMILES): CCCCN(C[C@H]1O[C@H](OC2CCCCC2)[C@H](O)[C@@H](O)[C@H]1O)C(=O)N(CCCl)N=O [Compound 99, 3-n-butyl-3-(cyclohexyl α-D-galactopyranose-6-yl)-1-(2-chloroethyl)-1-nitrosourea]
- ED (maximum ILS) [1, 3]: 200 mg/kg
- ED30 [1, 4]: 6.22 mg/kg
- Survivors after 60 days [1]: 3/6
- Max. ILS % [1]: > 330%
- Therapeutic ratio TR [1]: 32.2
- LD50 at 720 h [2]: 630 mg/kg

Structure (SMILES): CC(C)CN(C[C@H]1O[C@H](OC(C)(C)C)[C@H](O)[C@@H](O)[C@@H]1O)C(=O)N(CCCl)N=O [Compound 28, 3-isobutyl-3-(2-methyl-2-propyl α-D-glucopyranose-6-yl)-1-(2-chloroethyl)-1-nitrosourea]
- O.D. (optimum dosage) [1, 3]: 130 mg/kg
- ILS30 [1, 4]: 3.00 mg/kg
- Survivors after 60 days [1]: 6/6
- Max. ILS % [1]: > 700%
- Therapeutic ratio TR [1]: 43.2
- LD50 [2]: 375 mg/kg

Structure (SMILES): C=C(C)CN(C(=O)N(CCCl)N=O)C1C(O)C(CO)OC(OC(C)CC)C1O [Compound 85, 3-(2-methyl-2-propenyl)-3-(sec-butyl α-D-glucopyranose-3-yl)-1-(2-chloroethyl)-1-nitrosourea]
- ED (maximum ILS) [1, 3]: 220 mg/kg
- ED30 [1, 4]: 7.25 mg/kg
- Survivors after 60 days [1]: 3/6
- Max. ILS % [1]: > 360%
- Therapeutic ratio TR [1]: 30.3
- LD50 at 720 h [2]: 685 mg/kg

Structure (SMILES): CCCCO[C@H]1O[C@H](CN(CCC)C(=O)N(CCCl)N=O)[C@@H](O)[C@H](O)[C@H]1O [Compound 5, 3-n-propyl-3-(n-butyl α-D-glucopyranose-6-yl)-1-(2-chloroethyl)-1-nitrosourea]
- ED (maximum ILS) [1, 3]: 100 mg/kg
- ED30 [1, 4]: 2.6 mg/kg
- Survivors after 60 days [1]: 6/6
- Max. ILS % [1]: > 700%
- Therapeutic ratio TR [1]: 38.5
- LD50 at 720 h [2]: 325 mg/kg

Structure (SMILES): CCC(C)N(C[C@H]1O[C@H](OC2CCCCC2)[C@H](O)[C@@H](O)[C@@H]1O)C(=O)N(CCCl)N=O (stereo partly drawn) [Compound 37, 3-sec-butyl-3-(cyclohexyl α-D-glucopyranose-6-yl)-1-(2-chloroethyl)-1-nitrosourea]
- ED (maximum ILS) [1, 3]: 200 mg/kg
- ED30 [1, 4]: 3.69 mg/kg
- Survivors after 60 days [1]: 5/6
- Max. ILS % [1]: > 620%
- Therapeutic ratio TR [1]: 54.2
- LD50 at 720 h [2]: 605 mg/kg

Structure (SMILES): COc1ccc(CN(C[C@H]2O[C@H](OCC(C)C)[C@H](O)[C@@H](O)[C@@H]2O)C(=O)N(CCCl)N=O)cc1 [Compound 21, 3-(p-methoxybenzyl)-3-(isobutyl α-D-glucopyranose-6-yl)-1-(2-chloroethyl)-1-nitrosourea]
- ED (maximum ILS) [1, 3]: 200 mg/kg
- ED30 [1, 4]: 5.45 mg/kg
- Survivors after 60 days [1]: 3/6
- Max. ILS % [1]: > 360%
- Therapeutic ratio TR [1]: 36.7
- LD50 at 720 h [2]: 585 mg/kg

Structure (SMILES): CO[C@H]1O[C@H](CN(CCO)C(=O)N(CCCl)N=O)[C@@H](O)[C@H](O)[C@H]1O [Compound 6MCαGHE, 3-(2-hydroxyethyl)-3-(methyl α-D-glucopyranose-6-yl)-1-(2-chloroethyl)-1-nitrosourea, reference compound]
- ED (maximum ILS) [1, 3]: 30 mg/kg
- ED30 [1, 4]: 1.4 mg/kg
- Survivors after 60 days [1]: 4/6
- Max. ILS % [1]: > 440%
- Therapeutic ratio TR [1]: 21.4
- LD50 at 720 h [2]: 90 mg/kg

Structure (SMILES): CC(C)CN(C(=O)N(CCCl)N=O)[C@@H]1CO[C@H](OC2CCCCC2)[C@H](O)[C@H]1O [Compound 151, 3-isobutyl-3-(cyclohexyl α-D-xylopyranose-4-yl)-1-(2-chloroethyl)-1-nitrosourea]
- ED (maximum ILS) [1, 3]: 150 mg/kg
- ED30 [1, 4]: 3.21 mg/kg
- Survivors after 60 days [1]: 4/6
- Max. ILS % [1]: > 425%
- Therapeutic ratio TR [1]: 46.7
- LD50 at 720 h [2]: 490 mg/kg

Structure (SMILES): COCCN(C(=O)N(CCCl)N=O)[C@@H]1[C@@H](OCCc2ccccc2)O[C@H](CO)[C@@H](O)[C@H]1O [Compound 142, 3-(2-methoxyethyl)-3-(phenyl-β-ethyl α-D-altropyranose-2-yl)-1-(2-chloroethyl)-1-nitrosourea]
- ED (maximum ILS) [1, 3]: 160 mg/kg
- ED30 [1, 4]: 4.16 mg/kg
- Survivors after 60 days [1]: 3/6
- Max. ILS % [1]: > 350%
- Therapeutic ratio TR [1]: 38.5
- LD50 at 720 h [2]: 500 mg/kg

Structure (SMILES): CCOCCO[C@H]1O[C@H](CN(CC(C)(C)C)C(=O)N(CCCl)N=O)[C@@H](O)[C@H](O)[C@H]1O [Compound 187, 3-neopentyl-3-(2-ethoxyethyl α-D-glucopyranose-6-yl)-1-(2-choroethyl)-1-nitrosourea]
- ED (maximum ILS) [1, 3]: 160 mg/kg
- ED30 [1, 4]: 2.66 mg/kg
- Survivors after 60 days [1]: 6/6
- Max. ILS % [1]: > 700%
- Therapeutic ratio TR [1]: 60.2
- LD50 at 720 h [2]: 510 mg/kg

Structure (SMILES): C=C(C)CN(C(=O)N(CCCl)N=O)[C@@H]1[C@H](O)[C@@H](O)[C@@H](OCC(COC)OC)O[C@@H]1CO (stereo partly drawn) [Compound 130, 3-(2-methyl-2-propenyl)-3-(2,3-dimethoxy-n-propyl α-D-galactopyranose-4-yl)-1-(2-chloroethyl)-1-nitrosourea]
- ED (maximum ILS) [1, 3]: 160 mg/kg
- ED30 [1, 4]: 5.06 mg/kg
- Survivors after 60 days [1]: 3/6
- Max. ILS % [1]: > 340%
- Therapeutic ratio TR [1]: 31.6
- LD50 at 720 h [2]: 525 mg/kg

Structure (SMILES): CCCN(C[C@H]1O[C@H](OC2CCCCC2)[C@H](O)[C@@H](O)[C@H]1O)C(=O)N(CCCl)N=O [Compound 98, 3-n-propyl-3-(cyclohexyl α-D-galactopyranose-6-yl)-1-(2-chloroethyl)-1-nitrosourea]
- ED (maximum ILS) [1, 3]: 200 mg/kg
- ED30 [1, 4]: 6.45 mg/kg
- Survivors after 60 days [1]: 3/6
- Max. ILS % [1]: > 350%
- Therapeutic ratio TR [1]: 31.0
- LD50 at 720 h [2]: 600 mg/kg

From patent US4593090A, “Novel nitrosourea compounds, method for preparing same, and pharmaceutical composition containing same” (Gogo Kimura, priority 1981, dated 1986)
